Assay results reported in patent publication US8084649B2, “Herbicides” (Syngenta Crop Protection, inc., priority 2007, dated 2011).

system: Alopecurus myosuroides (ALOMY); test: Pre-emergence herbicidal activity, glasshouse pot test; format: in vivo; details: Alopecurus myosuroides, 480 h, rate 500 g/ha, evaluated after 20 days, read-out: Pre-emergence activity, ALOMY (100=total damage to plant; 0=no damage to plant)
Procedure, shortened: (§1)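 Visual damage score 0–100 (100 = plant totally killed), taken 20 days after treatment. Spray was applied to pots of sterilised standard soil one day post-sowing, using an aqueous solution of compound in acetone and a surfactant/solvent blend (Emulsogen EL, NMP, DPGME, X-77).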

Row | Compound | pest or weed control at 500 g/ha [%]
1 | COC1CCC2(CC1)CC(=O)C(c1cc(-c3ccc(Cl)cc3)ccc1C)=C(O)C2 (stereo not drawn) [Compound T69] | 0
2 | Cc1cc(C)c(C2=C(O)CC3(CCS(=O)(=O)CC3)CC2=O)c(C)c1 [Compound T5] | 70
3 | CCc1cc(C)cc(CC)c1C1=C(OC(=O)OCc2ccccc2)CC2(CCOCC2)CC1=O [Compound P17] | 100

system: Avena fatua (AVEFA); test: as above; format: in vivo; details: Avena fatua, 480 h, rate 500 g/ha, evaluated after 20 days, read-out: Pre-emergence activity, AVEFA (100=total damage to plant; 0=no damage to plant)
Procedure, shortened: as §1

Row | Compound | pest or weed control at 500 g/ha [%]
4 | COC1CCC2(CC1)CC(=O)C(c1cc(-c3ccc(Cl)cc3)ccc1C)=C(O)C2 (stereo not drawn) [Compound T69] | 30
5 | Cc1cc(C)c(C2=C(O)CC3(CCS(=O)(=O)CC3)CC2=O)c(C)c1 [Compound T5] | 10
6 | CCc1cc(C)cc(CC)c1C1=C(OC(=O)OCc2ccccc2)CC2(CCOCC2)CC1=O [Compound P17] | 100

system: Digitaria sanguinalis (DIGSA); test: as above; format: in vivo; details: Digitaria sanguinalis, 480 h, rate 500 g/ha, evaluated after 20 days, read-out: Pre-emergence activity, DIGSA (100=total damage to plant; 0=no damage to plant)
Procedure, shortened: as §1

Row | Compound | pest or weed control at 500 g/ha [%]
7 | COC1CCC2(CC1)CC(=O)C(c1cc(-c3ccc(Cl)cc3)ccc1C)=C(O)C2 (stereo not drawn) [Compound T69] | 100
8 | Cc1cc(C)c(C2=C(O)CC3(CCS(=O)(=O)CC3)CC2=O)c(C)c1 [Compound T5] | 70
9 | CCc1cc(C)cc(CC)c1C1=C(OC(=O)OCc2ccccc2)CC2(CCOCC2)CC1=O [Compound P17] | 100

system: Echinochloa crus-galli (ECHCG); test: as above; format: in vivo; details: Echinochloa crus-galli, 480 h, rate 500 g/ha, evaluated after 20 days, read-out: Pre-emergence activity, ECHCG (100=total damage to plant; 0=no damage to plant)
Procedure, shortened: as §1

Row | Compound | pest or weed control at 500 g/ha [%]
10 | COC1CCC2(CC1)CC(=O)C(c1cc(-c3ccc(Cl)cc3)ccc1C)=C(O)C2 (stereo not drawn) [Compound T69] | 70
11 | Cc1cc(C)c(C2=C(O)CC3(CCS(=O)(=O)CC3)CC2=O)c(C)c1 [Compound T5] | 40
12 | CCc1cc(C)cc(CC)c1C1=C(OC(=O)OCc2ccccc2)CC2(CCOCC2)CC1=O [Compound P17] | 100

system: Lolium perenne (LOLPE); test: as above; format: in vivo; details: Lolium perenne, 480 h, rate 500 g/ha, evaluated after 20 days, read-out: Pre-emergence activity, LOLPE (100=total damage to plant; 0=no damage to plant)
Procedure, shortened: as §1

Row | Compound | pest or weed control at 500 g/ha [%]
13 | COC1CCC2(CC1)CC(=O)C(c1cc(-c3ccc(Cl)cc3)ccc1C)=C(O)C2 (stereo not drawn) [Compound T69] | 60
14 | Cc1cc(C)c(C2=C(O)CC3(CCS(=O)(=O)CC3)CC2=O)c(C)c1 [Compound T5] | 60
15 | CCc1cc(C)cc(CC)c1C1=C(OC(=O)OCc2ccccc2)CC2(CCOCC2)CC1=O [Compound P17] | 100

system: Setaria faberi (SETFA); test: as above; format: in vivo; details: Setaria faberi, 480 h, rate 500 g/ha, evaluated after 20 days, read-out: Pre-emergence activity, SETFA (100=total damage to plant; 0=no damage to plant)
Procedure, shortened: as §1

Row | Compound | pest or weed control at 500 g/ha [%]
16 | COC1CCC2(CC1)CC(=O)C(c1cc(-c3ccc(Cl)cc3)ccc1C)=C(O)C2 (stereo not drawn) [Compound T69] | 70
17 | Cc1cc(C)c(C2=C(O)CC3(CCS(=O)(=O)CC3)CC2=O)c(C)c1 [Compound T5] | 30
18 | CCc1cc(C)cc(CC)c1C1=C(OC(=O)OCc2ccccc2)CC2(CCOCC2)CC1=O [Compound P17] | 100

system: Alopecurus myosuroides (ALOMY); test: Post-emergence herbicidal activity, glasshouse pot test; format: in vivo; details: Alopecurus myosuroides, rate 125 g/ha, evaluated after 14 or 15 days, read-out: Post-emergence activity, ALOMY (100=total damage to plant; 0=no damage to plant)
Procedure, shortened: (§2)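 Damage rated visually on a 0–100 scale (100 = total damage) 14 or 15 days after spraying. Pots of sterilised standard soil; plants treated post-emergence after 10 days glasshouse cultivation with an aqueous spray from an acetone/Emulsogen EL/N-methylpyrrolidone/dipropylene glycol monomethyl ether/X-77 formulation.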

Row | Compound | pest or weed control at 125 g/ha [%]
19 | COC1CCC2(CC1)CC(=O)C(c1cc(-c3ccc(Cl)cc3)ccc1C)=C(O)C2 (stereo not drawn) [Compound T69] | 20
20 | CCc1cc(C)cc(CC)c1C1=C(OC(=O)OCc2ccccc2)CC2(CCOCC2)CC1=O [Compound P17] | 90

same assay, conditions: Alopecurus myosuroides, rate 500 g/ha, evaluated after 14 or 15 days, read-out: Post-emergence activity, ALOMY (100=total damage to plant; 0=no damage to plant)

Row | Compound | pest or weed control at 500 g/ha [%]
21 | Cc1cc(C)c(C2=C(O)CC3(CCS(=O)(=O)CC3)CC2=O)c(C)c1 [Compound T5] | 70

system: Avena fatua (AVEFA); test: as above; format: in vivo; details: Avena fatua, rate 125 g/ha, evaluated after 14 or 15 days, read-out: Post-emergence activity, AVEFA (100=total damage to plant; 0=no damage to plant)
Procedure, shortened: as §2

Row | Compound | pest or weed control at 125 g/ha [%]
22 | COC1CCC2(CC1)CC(=O)C(c1cc(-c3ccc(Cl)cc3)ccc1C)=C(O)C2 (stereo not drawn) [Compound T69] | 10
23 | CCc1cc(C)cc(CC)c1C1=C(OC(=O)OCc2ccccc2)CC2(CCOCC2)CC1=O [Compound P17] | 80

same assay, conditions: Avena fatua, rate 500 g/ha, evaluated after 14 or 15 days, read-out: Post-emergence activity, AVEFA (100=total damage to plant; 0=no damage to plant)

Row | Compound | pest or weed control at 500 g/ha [%]
24 | Cc1cc(C)c(C2=C(O)CC3(CCS(=O)(=O)CC3)CC2=O)c(C)c1 [Compound T5] | 20

system: Digitaria sanguinalis (DIGSA); test: as above; format: in vivo; details: Digitaria sanguinalis, rate 125 g/ha, evaluated after 14 or 15 days, read-out: Post-emergence activity, DIGSA (100=total damage to plant; 0=no damage to plant)
Procedure, shortened: as §2

Row | Compound | pest or weed control at 125 g/ha [%]
25 | COC1CCC2(CC1)CC(=O)C(c1cc(-c3ccc(Cl)cc3)ccc1C)=C(O)C2 (stereo not drawn) [Compound T69] | 0
26 | CCc1cc(C)cc(CC)c1C1=C(OC(=O)OCc2ccccc2)CC2(CCOCC2)CC1=O [Compound P17] | 70

same assay, conditions: Digitaria sanguinalis, rate 500 g/ha, evaluated after 14 or 15 days, read-out: Post-emergence activity, DIGSA (100=total damage to plant; 0=no damage to plant)

Row | Compound | pest or weed control at 500 g/ha [%]
27 | Cc1cc(C)c(C2=C(O)CC3(CCS(=O)(=O)CC3)CC2=O)c(C)c1 [Compound T5] | 70

system: Echinochloa crus-galli (ECHCG); test: as above; format: in vivo; details: Echinochloa crus-galli, rate 125 g/ha, evaluated after 14 or 15 days, read-out: Post-emergence activity, ECHCG (100=total damage to plant; 0=no damage to plant)
Procedure, shortened: as §2

Row | Compound | pest or weed control at 125 g/ha [%]
28 | COC1CCC2(CC1)CC(=O)C(c1cc(-c3ccc(Cl)cc3)ccc1C)=C(O)C2 (stereo not drawn) [Compound T69] | 0
29 | CCc1cc(C)cc(CC)c1C1=C(OC(=O)OCc2ccccc2)CC2(CCOCC2)CC1=O [Compound P17] | 70

same assay, conditions: Echinochloa crus-galli, rate 500 g/ha, evaluated after 14 or 15 days, read-out: Post-emergence activity, ECHCG (100=total damage to plant; 0=no damage to plant)

Row | Compound | pest or weed control at 500 g/ha [%]
30 | Cc1cc(C)c(C2=C(O)CC3(CCS(=O)(=O)CC3)CC2=O)c(C)c1 [Compound T5] | 60

system: Lolium perenne (LOLPE); test: as above; format: in vivo; details: Lolium perenne, rate 125 g/ha, evaluated after 14 or 15 days, read-out: Post-emergence activity, LOLPE (100=total damage to plant; 0=no damage to plant)
Procedure, shortened: as §2

Row | Compound | pest or weed control at 125 g/ha [%]
31 | COC1CCC2(CC1)CC(=O)C(c1cc(-c3ccc(Cl)cc3)ccc1C)=C(O)C2 (stereo not drawn) [Compound T69] | 50
32 | CCc1cc(C)cc(CC)c1C1=C(OC(=O)OCc2ccccc2)CC2(CCOCC2)CC1=O [Compound P17] | 80

same assay, conditions: Lolium perenne, rate 500 g/ha, evaluated after 14 or 15 days, read-out: Post-emergence activity, LOLPE (100=total damage to plant; 0=no damage to plant)

Row | Compound | pest or weed control at 500 g/ha [%]
33 | Cc1cc(C)c(C2=C(O)CC3(CCS(=O)(=O)CC3)CC2=O)c(C)c1 [Compound T5] | 70

system: Setaria faberi (SETFA); test: as above; format: in vivo; details: Setaria faberi, rate 125 g/ha, evaluated after 14 or 15 days, read-out: Post-emergence activity, SETFA (100=total damage to plant; 0=no damage to plant)
Procedure, shortened: as §2

Row | Compound | pest or weed control at 125 g/ha [%]
34 | COC1CCC2(CC1)CC(=O)C(c1cc(-c3ccc(Cl)cc3)ccc1C)=C(O)C2 (stereo not drawn) [Compound T69] | 0
35 | CCc1cc(C)cc(CC)c1C1=C(OC(=O)OCc2ccccc2)CC2(CCOCC2)CC1=O [Compound P17] | 70

same assay, conditions: Setaria faberi, rate 500 g/ha, evaluated after 14 or 15 days, read-out: Post-emergence activity, SETFA (100=total damage to plant; 0=no damage to plant)

Row | Compound | pest or weed control at 500 g/ha [%]
36 | Cc1cc(C)c(C2=C(O)CC3(CCS(=O)(=O)CC3)CC2=O)c(C)c1 [Compound T5] | 70
